{
  "source": "patent US20250034167A1",
  "about": "“HETEROCYCLIC COMPOUNDS AND METHODS OF USE” (AMGEN INC., priority 2021, published 2025)",
  "key": {"[1]": {"target": "His-tagged KRAS G12D protein (Homo sapiens, UniProt P01116, G12D)", "sequence (P01116 1-188 isoform P01116-2 G12D)": "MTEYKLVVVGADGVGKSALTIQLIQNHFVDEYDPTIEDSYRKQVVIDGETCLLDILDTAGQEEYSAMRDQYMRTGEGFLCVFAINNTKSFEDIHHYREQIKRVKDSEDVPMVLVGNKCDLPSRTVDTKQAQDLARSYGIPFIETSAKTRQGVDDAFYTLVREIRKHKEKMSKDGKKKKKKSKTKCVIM", "assay": "biochemical", "description": "The plate was incubated for 30 minutes at room temperature. Biotinylated KRPep-2d substrate (Amgen) was diluted to nM in Assay Buffer and 2 μL was added to all wells and incubated for 1 hour at room temperature. Detection Reagent (0.4 nM LANCE Eu-W1024 Anti-6×His (Perkin Elmer AD0401), 5 nM streptavidin-d2 (Cisbio 610SADLA)) was prepared in Assay Buffer, then 4 µL was added to the plate and incubated for 1 hour at room temperature."}, "[2]": {"tested_on": "Phosphorylation of ERK1/2 in AsPC-1 cells", "assay": "Phospho-ERK1/2 MSD Assay", "format": "cell-based", "details": "Homo sapiens, ASPC1, 2 h, read-out: 2 h p-ERK (AsPC-1 cells), IC50, AsPC-1 cells, 2 h compound treatment", "method": "Sixteen hours prior to compound treatment, AsPC-1 cells were seeded in 96-well cell culture plates at a density of 25,000 cells/well and incubated at 37° C., 5% CO2. A compound dose-response titration was diluted in growth media, added to appropriate wells of a cell culture plate, and then incubated at 37° C., 5% CO2 for 2 hours."}},
  "note": "pIC50: −log10 of the molar value.",
  "data": [
    {"smiles": "CCC1CCCc2cc(O)cc(-c3ncc4c(N5CCC[C@@](C)(O)C5)nc(OC[C@@]56CCCN5C[C@H](F)C6)nc4c3F)c21", "note": "(single isomer, unassigned) [Example 173]", "values": [
      {"measurement": "pIC50", "setting": "[1]", "value": 8.40},
      {"measurement": "pIC50", "setting": "[2]", "value": 7.66}
    ]},
    {"smiles": "CCc1c(F)ccc2cc(O)cc(-c3ncc4c(N5CCC[C@@H](S(N)(=O)=O)C5)nc(OC[C@@]56CCCN5C[C@H](F)C6)nc4c3F)c12", "note": "[Example 1, (R)-1-(7-(8-Ethyl-7-fluoro-3-hydroxynaphthalen-1-yl)-8-fluoro-2-(((2R,7aS)-2-fluorotetrahydro-1H-pyrrolizin-7a(5H)-yl)methoxy)pyrido[4,3-d]pyrimidin-4-yl)piperidine-3-sulfonamide]", "values": [
      {"measurement": "pIC50", "setting": "[1]", "value": 9.00},
      {"measurement": "pIC50", "setting": "[2]", "value": 6.78}
    ]},
    {"smiles": "CCc1c(F)ccc2cc(O)cc(-c3ncc4c(N5CCCCCC5)nc(OC[C@@]56CCCN5C[C@H](F)C6)nc4c3F)c12", "note": "[Example 2, 4-(4-(Azepan-1-yl)-8-fluoro-2-(((2R,7aS)-2-fluorotetrahydro-1H-pyrrolizin-7a(5H)-yl)methoxy)pyrido[4,3-d]pyrimidin-7-yl)-5-ethyl-6-fluoronaphthalen-2-ol]", "values": [
      {"measurement": "pIC50", "setting": "[1]", "value": 9.00},
      {"measurement": "pIC50", "setting": "[2]", "value": 6.94}
    ]},
    {"smiles": "CCc1c(F)ccc2cc(O)cc(-c3ncc4c(N5CCC(C(N)=O)C5)nc(OC[C@@]56CCCN5C[C@H](F)C6)nc4c3F)c12", "note": "(stereo partly drawn) [Example 3, 1-(7-(8-Ethyl-7-fluoro-3-hydroxynaphthalen-1-yl)-8-fluoro-2-(((2R,7aS)-2-fluorotetrahydro-1H-pyrrolizin-7a(5H)-yl)methoxy)pyrido[4,3-d]pyrimidin-4-yl)pyrrolidine-3-carboxamide]", "values": [
      {"measurement": "pIC50", "setting": "[1]", "value": 8.05},
      {"measurement": "pIC50", "setting": "[2]", "value": "< 5.00"}
    ]},
    {"smiles": "CCc1c(F)ccc2cc(O)cc(-c3ncc4c(N5CCC[C@H]5C(N)=O)nc(OC[C@@]56CCCN5C[C@H](F)C6)nc4c3F)c12", "note": "[Example 4, (S)-1-(7-(8-Ethyl-7-fluoro-3-hydroxynaphthalen-1-yl)-8-fluoro-2-(((2R,7aS)-2-fluorotetrahydro-1H-pyrrolizin-7a(5H)-yl)methoxy)pyrido[4,3-d]pyrimidin-4-yl)pyrrolidine-2-carboxamide]", "values": [
      {"measurement": "pIC50", "setting": "[1]", "value": 7.68},
      {"measurement": "pIC50", "setting": "[2]", "value": "< 5.00"}
    ]},
    {"smiles": "CCc1c(F)ccc2cc(O)cc(-c3ncc4c(N5CCC(C(N)=O)CC5)nc(OC[C@@]56CCCN5C[C@H](F)C6)nc4c3F)c12", "note": "[Example 6, 1-(7-(8-Ethyl-7-fluoro-3-hydroxynaphthalen-1-yl)-8-fluoro-2-(((2R,7aS)-2-fluorotetrahydro-1H-pyrrolizin-7a(5H)-yl)methoxy)pyrido[4,3-d]pyrimidin-4-yl)piperidine-4-carboxamide]", "values": [
      {"measurement": "pIC50", "setting": "[1]", "value": 7.26},
      {"measurement": "pIC50", "setting": "[2]", "value": "< 5.00"}
    ]},
    {"smiles": "CCc1c(F)ccc2cc(O)cc(-c3ncc4c(N5CCC[C@H](S(N)(=O)=O)C5)nc(OC[C@@]56CCCN5C[C@H](F)C6)nc4c3F)c12", "note": "[Example 7, (S)-1-(7-(8-Ethyl-7-fluoro-3-hydroxynaphthalen-1-yl)-8-fluoro-2-(((2R,7aS)-2-fluorotetrahydro-1H-pyrrolizin-7a(5H)-yl)methoxy)pyrido[4,3-d]pyrimidin-4-yl)piperidine-3-sulfonamide]", "values": [
      {"measurement": "pIC50", "setting": "[1]", "value": 7.43},
      {"measurement": "pIC50", "setting": "[2]", "value": "< 5.00"}
    ]},
    {"smiles": "CCc1c(F)ccc2cc(O)cc(-c3ncc4c(N5CC(CC(N)=O)C5)nc(OC[C@@]56CCCN5C[C@H](F)C6)nc4c3F)c12", "note": "[Example 8, 2-(1-(7-(8-Ethyl-7-fluoro-3-hydroxynaphthalen-1-yl)-8-fluoro-2-(((2R,7aS)-2-fluorotetrahydro-1H-pyrrolizin-7a(5H)-yl)methoxy)pyrido[4,3-d]pyrimidin-4-yl)azetidin-3-yl)acetamide]", "values": [
      {"measurement": "pIC50", "setting": "[1]", "value": 7.09},
      {"measurement": "pIC50", "setting": "[2]", "value": "< 5.00"}
    ]},
    {"smiles": "CCc1c(F)ccc2cc(O)cc(-c3ncc4c(N5CC6CC(O)C6C5)nc(OC[C@@]56CCCN5C[C@H](F)C6)nc4c3F)c12", "note": "(stereo partly drawn) [Example 9, 3-(7-(8-Ethyl-7-fluoro-3-hydroxynaphthalen-1-yl)-8-fluoro-2-(((2R,7aS)-2-fluorotetrahydro-1H-pyrrolizin-7a(5H)-yl)methoxy)pyrido[4,3-d]pyrimidin-4-yl)-3-azabicyclo[3.2.0]heptan-6-ol]", "values": [
      {"measurement": "pIC50", "setting": "[1]", "value": 8.30},
      {"measurement": "pIC50", "setting": "[2]", "value": 5.87}
    ]},
    {"smiles": "CCc1c(F)ccc2cc(O)cc(-c3ncc4c(N5C[C@@H](O)[C@@H](O)C5)nc(OC[C@@]56CCCN5C[C@H](F)C6)nc4c3F)c12", "note": "[Example 11, (3S,4R)-1-(7-(8-Ethyl-7-fluoro-3-hydroxynaphthalen-1-yl)-8-fluoro-2-(((2R,7aS)-2-fluorotetrahydro-1H-pyrrolizin-7a(5H)-yl)methoxy)pyrido[4,3-d]pyrimidin-4-yl)pyrrolidine-3,4-diol]", "values": [
      {"measurement": "pIC50", "setting": "[1]", "value": 8.52},
      {"measurement": "pIC50", "setting": "[2]", "value": "< 5.00"}
    ]},
    {"smiles": "Oc1cc(-c2ncc3c(N4CCC[C@@H](O)C4)nc(OC[C@@]45CCCN4C[C@H](F)C5)nc3c2F)c2c(F)c(F)ccc2c1", "note": "[Example 12, (R)-1-(7-(7,8-Difluoro-3-hydroxynaphthalen-1-yl)-8-fluoro-2-(((2R,7aS)-2-fluorotetrahydro-1H-pyrrolizin-7a(5H)-yl)methoxy)pyrido[4,3-d]pyrimidin-4-yl)piperidin-3-ol]", "values": [
      {"measurement": "pIC50", "setting": "[1]", "value": 8.70},
      {"measurement": "pIC50", "setting": "[2]", "value": 6.42}
    ]},
    {"smiles": "CCc1cccc2cc(O)cc(-c3ncc4c(N5CCC[C@@H](O)C5)nc(OC[C@@]56CCCN5C[C@H](F)C6)nc4c3F)c12", "note": "[Example 13, (R)-1-(7-(8-Ethyl-3-hydroxynaphthalen-1-yl)-8-fluoro-2-(((2R,7aS)-2-fluorotetrahydro-1H-pyrrolizin-7a(5H)-yl)methoxy)pyrido[4,3-d]pyrimidin-4-yl)piperidin-3-ol]", "values": [
      {"measurement": "pIC50", "setting": "[1]", "value": 8.70},
      {"measurement": "pIC50", "setting": "[2]", "value": 6.97}
    ]},
    {"smiles": "CCc1c(F)ccc2cc(O)cc(-c3ncc4c(N5C[C@H]6CC[C@@H]5C(O)C6)nc(OC[C@@]56CCCN5C[C@H](F)C6)nc4c3F)c12", "note": "(stereo partly drawn) [Example 17, (1R,4S)-2-(7-(8-Ethyl-7-fluoro-3-hydroxynaphthalen-1-yl)-8-fluoro-2-(((2R,7aS)-2-fluorotetrahydro-1H-pyrrolizin-7a(5H)-yl)methoxy)pyrido[4,3-d]pyrimidin-4-yl)-2-azabicyclo[2.2.2]octan-6-ol]", "values": [
      {"measurement": "pIC50", "setting": "[1]", "value": 7.42},
      {"measurement": "pIC50", "setting": "[2]", "value": 5.50}
    ]},
    {"smiles": "Oc1cc(-c2ncc3c(N4CC5CC(O)C(C5)C4)nc(OC[C@@]45CCCN4C[C@H](F)C5)nc3c2F)c2c(F)c(F)ccc2c1", "note": "(stereo partly drawn) [Example 18, 3-(7-(7,8-Difluoro-3-hydroxynaphthalen-1-yl)-8-fluoro-2-(((2R,7aS)-2-fluorotetrahydro-1H-pyrrolizin-7a(5H)-yl)methoxy)pyrido[4,3-d]pyrimidin-4-yl)-3-azabicyclo[3.2.1]octan-6-ol]", "values": [
      {"measurement": "pIC50", "setting": "[1]", "value": 8.52},
      {"measurement": "pIC50", "setting": "[2]", "value": 6.98}
    ]},
    {"smiles": "CCc1c(F)ccc2cc(O)cc(-c3ncc4c(N5CCCC(CO)(CCl)C5)nc(OC[C@@]56CCCN5C[C@H](F)C6)nc4c3F)c12", "note": "(stereo partly drawn) [Example 22, 4-(4-(3-(Chloromethyl)-3-(hydroxymethyl)piperidin-1-yl)-8-fluoro-2-(((2R,7aS)-2-fluorotetrahydro-1H-pyrrolizin-7a(5H)-yl)methoxy)pyrido[4,3-d]pyrimidin-7-yl)-5-ethyl-6-fluoronaphthalen-2-ol]", "values": [
      {"measurement": "pIC50", "setting": "[1]", "value": 8.40},
      {"measurement": "pIC50", "setting": "[2]", "value": 6.53}
    ]},
    {"smiles": "C[C@@]1(O)CCCN(c2nc(OC[C@@]34CCCN3C[C@H](F)C4)nc3c(F)c(-c4cccc5ccc(F)c(F)c45)ncc23)C1", "note": "[Example 49, (R)-1-(7-(7,8-Difluoronaphthalen-1-yl)-8-fluoro-2-(((2R,7aS)-2-fluorotetrahydro-1H-pyrrolizin-7a(5H)-yl)methoxy)pyrido[4,3-d]pyrimidin-4-yl)-3-methylpiperidin-3-ol]", "values": [
      {"measurement": "pIC50", "setting": "[1]", "value": 7.77},
      {"measurement": "pIC50", "setting": "[2]", "value": 6.00}
    ]},
    {"smiles": "C#Cc1c(F)ccc2cc(O)cc(-c3ncc4c(N5CCCC(C)(O)C5)nc(OCC56CCCN5CC(F)C6)nc4c3F)c12", "note": "[Example 52, (R)-1-(7-(8-Ethynyl-7-fluoro-3-hydroxynaphthalen-1-yl)-8-fluoro-2-(((2R,7aS)-2-fluorotetrahydro-1H-pyrrolizin-7a(5H)-yl)methoxy)pyrido[4,3-d|pyrimidin-4-yl)-3-methylpiperidin-3-ol]", "values": [
      {"measurement": "pIC50", "setting": "[1]", "value": 9.00},
      {"measurement": "pIC50", "setting": "[2]", "value": 8.10}
    ]},
    {"smiles": "C[C@@]1(O)CCCN(c2nc(OC[C@@]34CCCN3C[C@H](F)C4)nc3c(F)c(-c4cc(O)cc5ccc(F)c(Cl)c45)ncc23)C1", "note": "[Example 56, (R)-1-(7-(8-Chloro-7-fluoro-3-hydroxynaphthalen-1-yl)-8-fluoro-2-(((2R,7aS)-2-fluorotetrahydro-1H-pyrrolizin-7a(5H)-yl)methoxy)pyrido[4,3-d]pyrimidin-4-yl)-3-methylpiperidin-3-ol]", "values": [
      {"measurement": "pIC50", "setting": "[1]", "value": 9.00},
      {"measurement": "pIC50", "setting": "[2]", "value": 7.48}
    ]},
    {"smiles": "C[C@@]1(O)CCCN(c2nc(OC[C@@]34CCCN3C[C@H](F)C4)nc3c(F)c(-c4cc(O)cc5cccc(F)c45)ncc23)C1", "note": "[Example 57, (R)-1-(8-Fluoro-7-(8-fluoro-3-hydroxynaphthalen-1-yl)-2-(((2R,7aS)-2-fluorotetrahydro-1H-pyrrolizin-7a(5H)-yl)methoxy)pyrido[4,3-d]pyrimidin-4-yl)-3-methylpiperidin-3-ol]", "values": [
      {"measurement": "pIC50", "setting": "[1]", "value": 8.70},
      {"measurement": "pIC50", "setting": "[2]", "value": 6.94}
    ]},
    {"smiles": "CCc1cccc2cc(O)cc(-c3ncc4c(N5CCC[C@@](C)(O)C5)nc(OC[C@@]56CCCN5C[C@H](F)C6)nc4c3F)c12", "note": "[Example 58, (R)-1-(7-(8-Ethyl-3-hydroxynaphthalen-1-yl)-8-fluoro-2-(((2R,7aS)-2-fluorotetrahydro-1H-pyrrolizin-7a(5H)-yl)methoxy)pyrido[4,3-d]pyrimidin-4-yl)-3-methylpiperidin-3-ol]", "values": [
      {"measurement": "pIC50", "setting": "[1]", "value": 9.00},
      {"measurement": "pIC50", "setting": "[2]", "value": 8.05}
    ]},
    {"smiles": "C[C@@]1(O)CCCN(c2nc(OC[C@@]34CCCN3C[C@H](F)C4)nc3c(F)c(-c4cc(O)cc5ccccc45)ncc23)C1", "note": "[Example 60, (R)-1-(8-Fluoro-2-(((2R,7aS)-2-fluorotetrahydro-1H-pyrrolizin-7a(5H)-yl)methoxy)-7-(3-hydroxynaphthalen-1-yl)pyrido[4,3-d]pyrimidin-4-yl)-3-methylpiperidin-3-ol]", "values": [
      {"measurement": "pIC50", "setting": "[1]", "value": 8.70},
      {"measurement": "pIC50", "setting": "[2]", "value": 6.48}
    ]}
  ]
}
